Experimental data taken from patent publication US9686988B2, “Pesticidal compounds based on arylthiosulfonamide derivatives” (Syngenta Participations AG, priority 2012, dated 2017).

Key:
Type in all cases: in vivo
[1] = system: Heliothis virescens; experiment: Heliothis virescens (tobacco budworm), eggs on artificial diet; conditions: 120 h, application rate of 200 ppm, egg mortality, larval mortality, growth inhibition 5 days after infestation
Description: Heliothis virescens (Tobacco Budworm):
Eggs (0-24 h old) were placed in 24-well microtiter plates on artificial diet and treated with aqueous test solutions prepared from 10′000 ppm DMSO stock solutions by pipetting. The samples were assessed for egg mortality, larval mortality and growth inhibition 5 days after infestation. Control of Heliothis virescens by a test sample is noted when at least one of egg mortality, larval mortality and growth inhibition is better than the untreated sample.

[2] = system: Plutella xylostella; experiment: Plutella xylostella (diamond back moth), L2 larvae on artificial diet; conditions: 120 h, application rate of 200 ppm, mortality and growth inhibition 5 days after infestation
Description: Plutella xylostella (Diamond Back Moth):
(§1) 24-well microtiter plates with artificial diet were treated with aqueous test solutions prepared from 10′000 ppm DMSO stock solutions by pipetting. After drying, the plates were infested with L2 larvae (10 to 15 per well). The samples were assessed for mortality and growth inhibition 5 days after infestation. Control of Plutella xyllostella by a test sample is noted when at least one of mortality and growth inhibition is better than the untreated sample.

[3] = system: Spodoptera littoralis; experiment: Spodoptera littoralis (Egyptian cotton leaf worm), cotton leaf disc spray test; conditions: foliar, 72 h, application rate of 200 ppm, mortality, anti-feedant effect, growth inhibition 3 days after infestation, L1 larvae
Description: Spodoptera littoralis (Egyptian Cotton Leaf Worm)
Cotton leaf discs were placed on agar in 24-well microtiter plates and sprayed with aqueous test solutions prepared from 10′000 ppm DMSO stock solutions. After drying the leaf discs were infested with five L1 larvae. The samples were assessed for mortality, anti-feedant effect, and growth inhibition 3 days after infestation. Control of Spodoptera littoralis by a test sample is noted when at least one of mortality, anti-feedant effect, and growth inhibition is better than the untreated sample.

[4] = system: Diabrotica balteata; experiment: Diabrotica balteata (corn rootworm), L2 larvae on artificial diet; conditions: 120 h, application rate of 200 ppm, mortality and growth inhibition 5 days after infestation
Description: Diabrotica balteata (Corn Rootworm):
as §1, with “(6” for “(10”, “10” for “15”, “Diabrotica balteata” for “Plutella xyllostella”

[5] = system: Tetranychus urticae; experiment: Tetranychus urticae (two-spotted spider mite), bean leaf disc spray test; conditions: foliar, 192 h, application rate of 200 ppm, mortality (mobile stages) 8 days after infestation, mixed ages
Description: Tetranychus urticae (Two-Spotted Spider Mite):
Bean leaf discs on agar in 24-well microtiter plates were sprayed with aqueous test solutions prepared from 10′000 ppm DMSO stock solutions. After drying the leaf discs were infested with a mite population of mixed ages. The samples were assessed for mortality (mobile stages) 8 days after infestation.

[6] = system: Thrips tabaci; experiment: Thrips tabaci (onion thrips), sunflower leaf disc spray test; conditions: foliar, 144 h, application rate of 200 ppm, mortality 6 days after infestation, mixed ages
Description: Thrips tabaci (Onion Thrips):
Sunflower leaf discs were placed on agar in 24-well microtiter plates and sprayed with aqueous test solutions prepared from 10′000 ppm DMSO stock solutions. After drying the leaf discs were infested with a thrips population of mixed ages. The samples were assessed for mortality 6 days after infestation.

[7] = system: Myzus persicae; experiment: Myzus persicae (green peach aphid), sunflower leaf disc spray test; conditions: foliar, 144 h, read-out: mortality of Myzus persicae
Description: Myzus persicae (Green Peach Aphid):
Sunflower leaf discs were placed on agar in a 24-well microtiter plate and sprayed with aqueous test solutions prepared from 10′000 ppm DMSO stock solutions. After drying, the leaf discs were infested with an aphid population of mixed ages. The samples were assessed for mortality 6 days after infestation.

[8] = system: Diabrotica balteata; experiment: Diabrotica balteata (corn rootworm), sprayed maize sprouts; conditions: 96 h, application rate of 200 ppm, 4 days after infestation, L2 larvae
Description: Diabrotica balteata, (Corn Rootworm)
Maize sprouts, placed on an agar layer in 24-well microtiter plates were treated with aqueous test solutions prepared from 10′000 ppm DMSO stock solutions by spraying. After drying, the plates were infested with L2 larvae (6 to 10 per well). The samples were assessed for mortality 4 days after infestation.

O=S(=O)(CSc1ccc(C2=NO[C@@](c3cc(Cl)cc(Cl)c3)(C(F)(F)F)C2)cc1Br)NCC(F)(F)F [Compound B2, 1-[2-bromo-4-[(5S)-5-(3,5-dichlorophenyl)-5-(trifluoromethyl)-4H-isoxazol-3-yl]phenyl]sulfanyl-N-(2,2,2-trifluoroethyl)-methanesulfonamide]
≥ 80%: pest or weed control at 200 ppm [1] | pest or weed control at 200 ppm [2] | pest or weed control at 200 ppm [3] | pest or weed control at 200 ppm [4] | pest or weed control at 200 ppm [5] | pest or weed control at 200 ppm [6]

C#CCNS(=O)(=O)CSc1ccc(C2=NO[C@@](c3cc(Cl)cc(Cl)c3)(C(F)(F)F)C2)cc1Br [Compound B5, 1-[2-bromo-4-[(5S)-5-(3,5-dichlorophenyl)-5-(trifluoromethyl)-4H-isoxazol-3-yl]phenyl]sulfanyl-N-propargyl-methanesulfonamide]
≥ 80%: pest or weed control at 200 ppm [1] | pest or weed control at 200 ppm [2] | pest or weed control at 200 ppm [3] | pest or weed control at 200 ppm [4] | pest or weed control at 200 ppm [5] | pest or weed control at 200 ppm [6]

CCN(CC)S(=O)(=O)CSc1ccc(C2=CSC(c3cc(Cl)cc(Cl)c3)(C(F)(F)F)C2)cc1Br (stereo not shown) [Compound D1, 1-[2-bromo-4-[2-(3,5-dichlorophenyl)-2-(trifluoromethyl)-3H-thiophen-4-yl]phenyl]sulfanyl-N,N-diethyl-methanesulfonamide]
≥ 80%: pest or weed control at 200 ppm [5]

CC(C)NS(=O)(=O)CSc1ccc(C2=NO[C@@](c3cc(Cl)cc(Cl)c3)(C(F)(F)F)C2)cc1Br [Compound B4, 1-[2-bromo-4-[(5S)-5-(3,5-dichlorophenyl)-5-(trifluoromethyl)-4H-isoxazol-3-yl]phenyl]sulfanyl-N-isopropyl-methanesulfonamide]
≥ 80%: pest or weed control at 200 ppm [1] | pest or weed control at 200 ppm [2] | pest or weed control at 200 ppm [3] | mortality at 200 ppm [7] | pest or weed control at 200 ppm [4] | pest or weed control at 200 ppm [5] | pest or weed control at 200 ppm [6]

CCN(CC)S(=O)(=O)CSc1ccc(C2=NOC(c3cc(Cl)cc(Cl)c3)(C(F)(F)F)C2)cc1Br (stereo not shown) [Compound A2, 1-[2-bromo-4-[5-(3,5-dichlorophenyl)-5-(trifluoromethyl)-4H-isoxazol-3-yl]phenyl]sulfanyl-N,N-diethyl-methanesulfonamide]
≥ 80%: pest or weed control at 200 ppm [1] | pest or weed control at 200 ppm [2] | pest or weed control at 200 ppm [3] | pest or weed control at 200 ppm [4] | pest or weed control at 200 ppm [5] | pest or weed control at 200 ppm [6]

NS(=O)(=O)CS(=O)(=O)c1ccc(C2=NOC(c3cc(Cl)cc(Cl)c3)(C(F)(F)F)C2)cc1Br (stereo not shown) [Compound A4, [2-bromo-4-[5-(3,5-dichlorophenyl)-5-(trifluoromethyl)-4H-isoxazol-3-yl]phenyl]sulfonylmethanesulfonamide]
≥ 80%: pest or weed control at 200 ppm [1] | pest or weed control at 200 ppm [2] | pest or weed control at 200 ppm [3] | pest or weed control at 200 ppm [4] | pest or weed control at 200 ppm [5]

NS(=O)(=O)CSc1ccc(C2=NOC(c3cc(Cl)cc(Cl)c3)(C(F)(F)F)C2)cc1Br (stereo not shown) [Compound A1, [2-bromo-4-[5-(3,5-dichlorophenyl)-5-(trifluoromethyl)-4H-isoxazol-3-yl]phenyl]sulfanylmethanesulfonamide]
≥ 80%: pest or weed control at 200 ppm [1] | pest or weed control at 200 ppm [2] | pest or weed control at 200 ppm [3] | pest or weed control at 200 ppm [4] | pest or weed control at 200 ppm [5] | pest or weed control at 200 ppm [6]

CCNS(=O)(=O)CSc1ccc(C2=CSC(c3cc(Cl)cc(Cl)c3)(C(F)(F)F)C2)cc1Br (stereo not shown) [Compound D2, 1-[2-bromo-4-[2-(3,5-dichlorophenyl)-2-(trifluoromethyl)-3H-thiophen-4-yl]phenyl]sulfanyl-N-ethyl-methanesulfonamide]
≥ 80%: mortality at 200 ppm [8] | pest or weed control at 200 ppm [1] | pest or weed control at 200 ppm [2] | pest or weed control at 200 ppm [3]

O=S(=O)(CSc1ccc(C2=NO[C@@](c3cc(Cl)cc(Cl)c3)(C(F)(F)F)C2)cc1Br)NC1CC1 [Compound B3, 1-[2-bromo-4-[(5S)-5-(3,5-dichlorophenyl)-5-(trifluoromethyl)-4H-isoxazol-3-yl]phenyl]sulfanyl-N-cyclopropyl-methanesulfonamide]
≥ 80%: pest or weed control at 200 ppm [1] | pest or weed control at 200 ppm [2] | pest or weed control at 200 ppm [3] | pest or weed control at 200 ppm [4] | pest or weed control at 200 ppm [5] | pest or weed control at 200 ppm [6]

CCNS(=O)(=O)CSc1ccc(C2=NOC(c3cc(Cl)cc(Cl)c3)(C(F)(F)F)C2)cc1Br (stereo not shown) [Compound A3, 1-[2-bromo-4-[5-(3,5-dichlorophenyl)-5-(trifluoromethyl)-4H-isoxazol-3-yl]phenyl]sulfanyl-N-ethyl-methanesulfonamide]
≥ 80%: pest or weed control at 200 ppm [1] | pest or weed control at 200 ppm [2] | pest or weed control at 200 ppm [3] | mortality at 200 ppm [7] | pest or weed control at 200 ppm [4] | pest or weed control at 200 ppm [5] | pest or weed control at 200 ppm [6]

O=S(=O)(CS(=O)(=O)c1ccc(C2=NOC(c3cc(Cl)cc(Cl)c3)(C(F)(F)F)C2)cc1Br)NC1CC1 (stereo not shown) [Compound B6, 1-[2-bromo-4-[5-(3,5-dichlorophenyl)-5-(trifluoromethyl)-4H-isoxazol-3-yl]phenyl]sulfonyl-N-cyclopropyl-methanesulfonamide]
≥ 80%: pest or weed control at 200 ppm [1] | pest or weed control at 200 ppm [2] | pest or weed control at 200 ppm [3] | pest or weed control at 200 ppm [4] | pest or weed control at 200 ppm [5] | pest or weed control at 200 ppm [6]

CCNS(=O)(=O)CSc1ccc(C2=NO[C@@](c3cc(Cl)cc(Cl)c3)(C(F)(F)F)C2)cc1Br [Compound B1, 1-[2-bromo-4-[(5S)-5-(3,5-dichlorophenyl)-5-(trifluoromethyl)-4H-isoxazol-3-yl]phenyl]sulfanyl-N-ethyl-methanesulfonamide]
≥ 80%: pest or weed control at 200 ppm [1] | pest or weed control at 200 ppm [2] | pest or weed control at 200 ppm [3] | mortality at 200 ppm [7] | pest or weed control at 200 ppm [4] | pest or weed control at 200 ppm [5] | pest or weed control at 200 ppm [6]
